Reference: patent US10576084B2, “Salt of fused heterocyclic derivative and crystal thereof” (KISSEI PHARMACEUTICAL CO., LTD., priority 2010, dated 2020)
Structures can show the parent of a compound that is named as a salt.

What was measured:
[1] = assay type: physicochemical; conditions: for saturation solubility in 1st fluid: pH 1.2; for saturation solubility in 2nd fluid: pH 6.8
Description: Saturation Solubility Test
The compound (A) obtained in Example 2, the compound (B) crystals obtained in Comparative Example 2, and the compound (C) obtained in Comparative Example 3 were suspended in water, or in 1st fluid for dissolution test (hereinafter, referred to as “1st fluid”) or 2nd fluid (hereinafter, referred to as “2nd fluid”) described in the Reagents·Test Solutions for General Tests, the Japanese Pharmacopoeia, 15th Edition. The suspensions were incubated at 37° C. After filtering a part of the suspensions, the concentrations of the resulting filtrates were measured by HPLC, and the saturation solubilities were calculated and compared. The HPLC measurement conditions are as follows.
• Detector: Ultraviolet and visible spectrophotometer /wavelength: 225 nm • Column: GL Science Inertsil ODS-3,5 μm, 4.6×250 mm • Column temperature: a constant temperature of around 35° C. • Flow rate: 1.0 mL/min • Mobile phase A: 10 mM potassium dihydrogen phosphate aqueous solution adjusted to pH 5.5 with potassium hydroxide aqueous solution • Mobile phase B: Acetonitrile • Mobile phase ratio 0 to 30 min: mobile phase A/mobile phase B=70/30
The saturation solubility values of compound (A), compound (B) crystals, and compound (C) in water, 1st fluid, and 2nd fluid are shown in Table 2. […] The saturation solubility of compound (A) in 1st fluid was about 30 times and about 2 times higher than those of compound (B) crystals and compound (C), respectively. In 2nd fluid, the saturation solubility of compound (A) was about 10 times and about 70 times higher than those of compound (B) crystals and compound (C), respectively.

[2] = in vivo; design: species or system SD rats; conditions: male, SD, rat; for maximum drug concentration time (Tmax): po, 3 mg/kg
Description: Assay for Oral Absorbability
1) Preparation of Sample for Drug Concentration Measurement by Administration through Tail Vein
SD rats (Charles River, male, 7 weeks of age, 170 to 210 g) were used as experimental animals after fasting the rats overnight. N,N-dimethylacetamide (0.2 mL), saline (0.798 mL) and 2N-NaOH (0.002 mL) were added in these amounts with respect to 1 mg of the compound (B) to prepare a 1.0 mg/mL solution. The solution was then administered in a 1 mL/kg dose (1 mg/kg) through the tail vein under no anesthesia (3 samples). The intravenous administration through tail was performed using a 26G injection needle and a 1 mL syringe. Blood was collected through the subclavian veins after 2, 15, 60, 120, 240 and 360 minutes from the intravenous administration through tail. The blood was centrifuged, and the plasma was used as a sample for blood drug concentration measurement.
2) Preparation of Sample for Drug Concentration Measurement by Oral Administration
SD rats (Charles River, male, 7 weeks of age, 220 to 290 g) were used as experimental animals after fasting the rats overnight. A 0.5% methylcellulose aqueous solution (5 mL) was added with respect to 3 mg of compound (A) or compound (B) (in terms of a free compound) to prepare a 0.6 mg/mL drug solution. Each solution was orally administered to the rats in a 5 mL/kg dose (3 mg/kg) (3 samples each). The oral administration was performed using a rat sonde and a 2.5-mL syringe. […]
A suitable internal standard substance solution (0.1 mL) was added to the blood plasma (0.025 mL) obtained in 1) and 2) using an ordinary method. […] Blood plasma drug concentration was measured using the LC-MS/MS technique under the conditions below. […]
Bioavailability (%) was calculated from the value of the area under the blood drug concentration-time curve determined by using a WinNonlin Professional (Pharsight Corporation) from the blood drug concentration at each time point obtained as above after the intravenous administration of the compound (B) through tail and the oral administration of the compound (A) or the compound (B).

[3] = Stability test (storage under 90° C. open conditions, purity by HPLC); assay type: physicochemical
Description: Stability Test The compound (A) obtained in Example 2 was stored under 90° C. open conditions to examine stability. In stability measurement, the purity of a sample was measured by HPLC at the initial point and after 8 days, and the results were compared. The HPLC measurement conditions are as follows. Measurement Conditions • Detector: Ultraviolet and visible spectrophotometer/wavelength: 225 nm • Column: GL Science Inertsil ODS-3,5 μm, 4.6×250 mm • Column temperature: Constant temperature around 35° C. • Flow rate: 1.0 mL/min • Mobile phase A: 10 mM potassium dihydrogen phosphate aqueous solution adjusted to pH 5.5 with potassium hydroxide aqueous solution • Mobile phase B: Acetonitrile • (Mobile phase ratios are shown in Table 4) • Area measurement range: 54 minutes from the start of the analysis. Areas of the peaks in the blank were excluded from the calculations.

SMILES	saturation solubility in water [1] [µg/mL]	saturation solubility in 1st fluid [1] [µg/mL]	saturation solubility in 2nd fluid [1] [µg/mL]	maximum drug concentration time (Tmax) [2] [h]	bioavailability [2] [%]	Purity (%) after 8 days ([3]; after 8 days under 90° C. open conditions) [%]	Purity (%) at initial point ([3]; initial point, before storage) [%]
COc1cc(F)c(-n2c(=O)[nH]c3csc(C(=O)O)c3c2=O)cc1OCc1c(OC)ccc(F)c1F.COc1cc(F)c(-n2c(=O)[nH]c3csc(C(=O)O)c3c2=O)cc1OCc1c(OC)ccc(F)c1F.c1ccc(CNCCNCc2ccccc2)cc1 [compound (C), 3-[2-Fluoro-5-(2,3-difluoro-6-methoxybenzyloxy)-4-methoxyphenyl]-2,4-dioxo-1,2,3,4-tetrahydrothieno[3,4-d]pyrimidine-5-carboxylic acid.1/2N,N′-dibenzylethylenediamine salt, reference compound]	68	2	52	–	–	–	–
COc1cc(F)c(-n2c(=O)[nH]c3csc(C(=O)O)c3c2=O)cc1OCc1c(OC)ccc(F)c1F (single isomer, unassigned) [compound (B), 3-[2-fluoro-5-(2,3-difluoro-6-methoxybenzyloxy)-4-methoxyphenyl]-2,4-dioxo-1,2,3,4-tetrahydrothieno[3,4-d]pyrimidine-5-carboxylic acid, reference compound]	7	0.14	367	3.33	–	–	–
COc1cc(F)c(-n2c(=O)[nH]c3csc(C(=O)O)c3c2=O)cc1OCc1c(OC)ccc(F)c1F (single isomer, unassigned) [compound (A), 3-[2-fluoro-5-(2,3-difluoro-6-methoxybenzyloxy)-4-methoxyphenyl]-2,4-dioxo-1,2,3,4-tetrahydrothieno[3,4-d]pyrimidine-5-carboxylic acid choline salt]	4165	4	3738	0.583	~59	99.6	99.6
